Source: paper PMC11562385 (RSC Chemical Biology, 2024)
Peptide text beside a SMILES is read from it.

Legend:
[1] = Variable-temperature CD melting curves (CD-melts at 228±2 nm and 202±2 nm), individual and global two-state fits; format: physicochemical; settings: for ΔGF0: CD-melt at 228±2 nm, individual two-state Gibbs-Helmholtz fit (Origin 9.0), phosphate buffer 15 mM pH 6.5 ± MeOH; for ΔGF0 / DHm (fitted value, results from OriginPro) / Tm (fitted value, results from OriginPro): 0-95 °C; for Tm / Hairpin %-fold 291K / Hairpin %-fold 310K: Table S5, individual fit; for Tm: 228±2 nm; for -TΔSF0 / ΔCpF0 / ΔHF0 / ΔHm: as E16; for VT-CD %-fold: folded fraction (χF) at 25 °C from CD-melts, (R) regular / (B) bulged fold; for VT-CD %-fold / VT-CD Tm (°C): phosphate buffer 15 mM pH 6.5, up to 20% MeOH; for VT-CD Tm (°C): melting temperature from CD-melts; for DHm (fitted value, results from OriginPro) / Tm (fitted value, results from OriginPro): two-state fit of the CD melt θ - θcoil(95) vs T, peptide c 3.2e-5 to 5e-5 M
Procedure, shortened: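 Far-UV CD melts (0 to 95 °C) at 15-120 µM peptide in 15 mM phosphate buffer, concentration set by Trp/Tyr absorbance at 280 nm; CD-exciton intensity taken as %-folding probe. Melting curves fitted individually and globally to a two-state model.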

[2] = target: T1, PD1:PDL1 interaction (Homo sapiens, UniProt Q15116); assay: PD1/PDL1 immunoblocking ELISA (BPS Bioscience kit cat # 72005); format: binding; settings: for LE (ligand efficiency): LE = -RTln(EC50)/HA, HA = non-hydrogen atoms omitting the strap (RWV•••VWE); for EC50: ELISA, mean of three independent experiments, read-out: EC50 Value
T1 construct: purchased BPS Bioscience 72005

[3] = variable-temperature CD melt 0-95 °C, θ - θcoil(95) vs T, l = 0.1 cm, individual two-state fit
[4] = xlsx sheet of the peptide, individual fit of CD-melt

T1 sequence (Q15116 25-167 limits assumed): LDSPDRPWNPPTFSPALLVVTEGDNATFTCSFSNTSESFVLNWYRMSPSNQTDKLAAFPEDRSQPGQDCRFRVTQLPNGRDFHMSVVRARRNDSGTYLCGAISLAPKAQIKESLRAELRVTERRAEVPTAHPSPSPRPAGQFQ

SMILES | ΔGF0 [1] [kcal/mol] | Tm [1] [oC] | Hairpin %-fold 291K ([1]; 291 K) [%] | Hairpin %-fold 310K [1] [%] | -TΔSF0 [1] [kcal/mol] | ΔCpF0 [1] [cal.deg-1.mol-1] | ΔHF0 [1] [kcal/mol] | ΔHm [1] [kcal/mol] | VT-CD %-fold [1] | VT-CD Tm (°C) [1] [°C] | DHm (fitted value, results from OriginPro) ([1]; l 0.1 cm) [kcal/mol] | Tm (fitted value, results from OriginPro) ([1]; l 0.1 cm) [K] | LE (ligand efficiency) [2] | EC50 [2] [µM] | also measured
CSCC[C@H](NC(=O)CNC(=O)[C@H](CCC(=O)O)NC(=O)[C@H](CCCNC(=N)N)NC(=O)[C@H](C)NC(=O)[C@@H](NC(=O)[C@H](Cc1c[nH]c2ccccc12)NC(=O)[C@@H](N)CCCNC(=N)N)C(C)C)C(=O)N[C@@H](CC(N)=O)C(=O)N[C@H](C(=O)N[C@@H](CC(=O)O)C(=O)NCC(=O)N[C@@H](Cc1ccc(O)cc1)C(=O)N[C@@H](Cc1ccccc1)C(=O)N[C@@H](CC(=O)O)C(=O)N[C@@H](Cc1ccc(O)cc1)C(=O)N[C@@H](Cc1c[nH]c2ccccc12)C(=O)N[C@@H](Cc1c[nH]cn1)C(=O)N[C@@H](Cc1c[nH]c2ccccc12)C(=O)N[C@@H](CCC(=O)O)C(=O)O)[C@@H](C)O [2o] (H-RWVAREGMNTDGYFDYWHWE-OH) | 0.47 ± 0.01 | 2.8 | 36 ± 1 | 23 ± 1 | 6.45 ± 0.02 | -2 ± 1 | -5.97 ± 0.01 | -5.93 ± 0.03 | 50% (B) | 3 | -5.92662 | 275.984 | 0.07 | – | %fold 291K ([1]; fraction folded at 291 K from the two-state fit of the CD melt, l 0.1 cm): 36%; Tm 228 nm Glob. ([1]; global fit (shared maximum molar ellipticity), 228 nm): 14.6 oC; Tm 202 nm Glob. ([1]; global fit, 202 nm): -18.3 oC; χF (291 K) 202 nm Glob. ([1]; global fit, 202 nm, 291 K): 19%; χF (291 K) 228 nm Glob. ([1]; global fit, 228 nm, 291 K): 47%; χF (291 K) 202 nm Indiv. ([1]; individual fit, 202 nm, 291 K): 38%; χF (291 K) 228 nm Indiv. ([1]; individual fit, 228 nm, 291 K): 36%; Tm 228 nm Indiv. ([1]; individual fit, exciton band 228 nm): 2.8 oC; Tm 202 nm Indiv. ([1]; individual fit, β-bulge band 202 nm): 7.9 oC
CSCC[C@H](NC(=O)[C@H](CC(=O)O)NC(=O)CNC(=O)[C@H](CCCNC(=N)N)NC(=O)[C@H](Cc1ccc(O)cc1)NC(=O)[C@H](CC(=O)O)NC(=O)[C@H](CCCNC(=N)N)NC(=O)[C@H](CCCNC(=N)N)NC(=O)[C@H](CCCCN)NC(=O)[C@@H](NC(=O)[C@H](Cc1c[nH]c2ccccc12)NC(=O)[C@@H](N)CCCNC(=N)N)C(C)C)C(=O)NCC(=O)N[C@@H](Cc1ccccc1)C(=O)N[C@@H](CC(=O)O)C(=O)N[C@@H](Cc1ccc(O)cc1)C(=O)N[C@@H](Cc1c[nH]c2ccccc12)C(=O)N[C@H](C(=O)N[C@@H](Cc1c[nH]c2ccccc12)C(=O)N[C@@H](CCC(=O)O)C(=O)O)C(C)C [2f] (H-RWVKRRDYRGDMGFDYWVWE-OH) | -1.33 ± 0.01 | 65.4 | 92 ± 1 | 85 ± 1 | 5.76 ± 0.07 | -208 ±2 | -7.09 ± 0.07 | -15.5 ± 0.04 | 92% (B) | – | – | – | 0.06 | 0.862 | %fold 291K ([1]; fraction folded at 291 K from two-state fit of CD-melt): 92%; DHm (fitted value, OriginPro two-state fit of CD-melt) [1, 3]: -15.5228 kcal/mol; Tm (fitted value, OriginPro two-state fit of CD-melt) [1, 3]: 338.533 K
CC[C@H](C)[C@H](NC(=O)[C@H](CC(=O)O)NC(=O)[C@H](CC(C)C)NC(=O)[C@H](CC(=O)O)NC(=O)[C@H](CCCNC(=N)N)NC(=O)[C@H](Cc1c[nH]c2ccccc12)NC(=O)[C@@H](NC(=O)[C@H](Cc1c[nH]c2ccccc12)NC(=O)[C@@H](N)CCCNC(=N)N)C(C)C)C(=O)N[C@@H](C)C(=O)N[C@H](C(=O)N[C@H](C(=O)N[C@@H](CCCNC(=N)N)C(=O)N[C@@H](CC(=O)O)C(=O)N[C@@H](Cc1ccc(O)cc1)C(=O)N[C@@H](Cc1c[nH]c2ccccc12)C(=O)N[C@H](C(=O)N[C@@H](Cc1c[nH]c2ccccc12)C(=O)N[C@@H](CCC(=O)O)C(=O)O)C(C)C)[C@@H](C)O)[C@@H](C)O [1f] (H-RWVWRDLDIATTRDYWVWE-OH) | -0.49 ± 0.01 | 39.4 | 78 ± 1 | 53 ± 1 | 9.96 ± 0.06 | -15 ± 3 | -10.5 ± 0.06 | -10.7 ± 0.04 | 78% (R) | 39 | -10.6792 | 312.539 | 0.06 | 3.36 | –
CSCC[C@H](NC(=O)[C@H](CC(=O)O)NC(=O)[C@H](Cc1ccccc1)NC(=O)[C@H](CCCNC(=N)N)NC(=O)[C@H](Cc1ccc(O)cc1)NC(=O)[C@H](CC(=O)O)NC(=O)[C@H](CCCNC(=N)N)NC(=O)[C@H](CCCNC(=N)N)NC(=O)[C@H](Cc1c[nH]c2ccccc12)NC(=O)[C@@H](NC(=O)[C@H](Cc1c[nH]c2ccccc12)NC(=O)[C@@H](N)CCCNC(=N)N)C(C)C)C(=O)NCC(=O)N[C@@H](Cc1ccccc1)C(=O)N[C@@H](CC(=O)O)C(=O)N[C@@H](Cc1ccc(O)cc1)C(=O)N[C@@H](Cc1c[nH]c2ccccc12)C(=O)N[C@H](C(=O)N[C@@H](Cc1c[nH]c2ccccc12)C(=O)N[C@@H](CCC(=O)O)C(=O)O)C(C)C [1d] (H-RWVWRRDYRFDMGFDYWVWE-OH) | 0.010 ± 0.001 | 34.9 | 48 ± 1 | 49 ± 1 | -1.08 ± 0.04 | -189 ± 2 | 1.09 ± 0.04 | -0.037 ± 0.07 | 49% (R) | – | – | – | 0.05 | 6.8 | DHm, fitted value from OriginPro [1, 4]: -0.0374427 kcal/mol; Tm, fitted value from OriginPro [1, 4]: 303.944 K
CC[C@H](C)[C@H](NC(=O)[C@H](Cc1ccc(O)cc1)NC(=O)[C@H](Cc1c[nH]c2ccccc12)NC(=O)[C@H](Cc1ccc(O)cc1)NC(=O)[C@H](CC(N)=O)NC(=O)CNC(=O)[C@H](Cc1ccc(O)cc1)NC(=O)[C@H](C)NC(=O)[C@H](CCCNC(=N)N)NC(=O)[C@H](C)NC(=O)[C@@H](NC(=O)[C@H](Cc1c[nH]c2ccccc12)NC(=O)[C@@H](N)CCCNC(=N)N)C(C)C)C(=O)N[C@@H](CC(=O)O)C(=O)N[C@H](C(=O)N[C@@H](Cc1c[nH]c2ccccc12)C(=O)N[C@@H](Cc1c[nH]cn1)C(=O)N[C@@H](Cc1c[nH]c2ccccc12)C(=O)N[C@@H](CCC(=O)O)C(=O)O)C(C)C [2q] (H-RWVARAYGNYWYIDVWHWE-OH) | – | – | – | – | – | – | – | – | β-structure | – | – | – | 0.07 | – | fold by CD signature (in words) ([1]; no hairpin exciton, no fit possible): β-sheet structure
CC[C@H](C)[C@H](NC(=O)[C@H](Cc1ccc(O)cc1)NC(=O)CNC(=O)[C@H](Cc1ccc(O)cc1)NC(=O)[C@H](CC(N)=O)NC(=O)CNC(=O)[C@H](Cc1ccc(O)cc1)NC(=O)[C@H](C)NC(=O)[C@H](CCCNC(=N)N)NC(=O)[C@H](C)NC(=O)[C@@H](NC(=O)[C@H](Cc1c[nH]c2ccccc12)NC(=O)[C@@H](N)CCCNC(=N)N)C(C)C)C(=O)N[C@@H](CC(=O)O)C(=O)N[C@H](C(=O)N[C@@H](Cc1c[nH]c2ccccc12)C(=O)N[C@@H](Cc1c[nH]cn1)C(=O)N[C@@H](Cc1c[nH]c2ccccc12)C(=O)N[C@@H](CCC(=O)O)C(=O)O)C(C)C [2r] (H-RWVARAYGNYGYIDVWHWE-OH) | -1.15 ± 0.01 | 67.6 | 91 ± 1 | 80 ± 1 | 7.13 ± 0.3 | -44 ± 9 | -8.29 ± 0.3 | -10.2 ± 0.2 | 91% (B) | – | – | – | 0.08 | – | %fold 291K ([1]; fraction folded at 291 K from the two-state fit of the CD melt, c 6.2e-5 M, l 0.1 cm): 91%; DHm (fitted value, OriginPro) ([1]; two-state fit of the CD melt (θ - θcoil(95) vs T, 0-95 °C), l 0.1 cm, enthalpy of folding at Tm): -10.1866 kcal/mol
